Test results: PubChem BioAssay AID2060493 (Molecular Pharmacology Branch, DTP, NCI, 2025)

Test system: 616215-338-R-J1-PDC tumor spheroids, viability
Assay: Anticancer human tumor 616215-338-R-J1-PDC patient-derived colon adenocarcinoma cell line growth inhibition [GQUAD]
Conditions: spheroids with HUVEC and MSC; for IC50: curve of first compound; for viability, T/C: stronger effect = lower value
Procedure, shortened: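 Tumor cells were grown as complex spheroids with HUVEC endothelial cells and mesenchymal stem cells as stroma. G-quadruplex stabilizers were combined with targeted agents over half-log dilutions from near the clinical Cmax, or from 10 microM.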
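Note: spheroids exposed to agents for 7 days before readout.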
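Throughout, for viability, T/C: percent viability relative to DMSO vehicle control wells taken as 100%.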

For `Cc1cccc(N(C)C(=O)C2C(O)CCN2c2nc(C)cc(C(F)(F)F)c2C#N)c1` (configuration not stated) + CN(C)c1ccc(Nc2c3ccc(NC(=O)CCN4CCCC4)cc3nc3cc(NC(=O)CCN4CCCC4)ccc23)cc1, the IC50 (second compound 0.0316 µM) was > 10 µM, the IC50 (second compound 0.1 µM) was > 10 µM and the IC50 (second compound 0.316 µM) was > 10 µM. The IC50 (second compound 1 µM) was > 10 µM, the IC50 (second compound 3.16 µM) was > 10 µM and the IC50 (second compound 10 µM) was 3.12 µM. For the same compound, the viability, T/C (second compound 0.0316 µM, first compound 0.0316 µM) was 111%, the viability, T/C (second compound 0.0316 µM, first compound 0.1 µM) was 97.9% and the viability, T/C (second compound 0.0316 µM, first compound 0.316 µM) was 103%. For the same compound, the viability, T/C (second compound 0.0316 µM, first compound 1 µM) was 103%, the viability, T/C (second compound 0.0316 µM, first compound 3.16 µM) was 105% and the viability, T/C (second compound 0.0316 µM, first compound 10 µM) was 109%. For the same compound, the viability, T/C (second compound 0.1 µM, first compound 0.0316 µM) was 102%, the viability, T/C (second compound 0.1 µM, first compound 0.1 µM) was 101% and the viability, T/C (second compound 0.1 µM, first compound 0.316 µM) was 108%. The viability, T/C (second compound 0.1 µM, first compound 1 µM) was 101%, the viability, T/C (second compound 0.1 µM, first compound 3.16 µM) was 104% and the viability, T/C (second compound 0.1 µM, first compound 10 µM) was 96.2%. It also gave a viability, T/C (second compound 0.316 µM, first compound 0.0316 µM) of 104%, a viability, T/C (second compound 0.316 µM, first compound 0.1 µM) of 99.5% and a viability, T/C (second compound 0.316 µM, first compound 0.316 µM) of 104%. For the same compound, the viability, T/C (second compound 0.316 µM, first compound 1 µM) was 107%, the viability, T/C (second compound 0.316 µM, first compound 3.16 µM) was 114% and the viability, T/C (second compound 0.316 µM, first compound 10 µM) was 110%. It also gave a viability, T/C (second compound 1 µM, first compound 0.0316 µM) of 100%, a viability, T/C (second compound 1 µM, first compound 0.1 µM) of 99.1% and a viability, T/C (second compound 1 µM, first compound 0.316 µM) of 106%. For the same compound, the viability, T/C (second compound 1 µM, first compound 1 µM) was 97.8%, the viability, T/C (second compound 1 µM, first compound 3.16 µM) was 102% and the viability, T/C (second compound 1 µM, first compound 10 µM) was 98.7%. For the same compound, the viability, T/C (second compound 3.16 µM, first compound 0.0316 µM) was 98.6%, the viability, T/C (second compound 3.16 µM, first compound 0.1 µM) was 93.1% and the viability, T/C (second compound 3.16 µM, first compound 0.316 µM) was 103%. It also gave a viability, T/C (second compound 3.16 µM, first compound 1 µM) of 102%, a viability, T/C (second compound 3.16 µM, first compound 3.16 µM) of 88.2% and a viability, T/C (second compound 3.16 µM, first compound 10 µM) of 88.9%. The viability, T/C (second compound 10 µM, first compound 0.0316 µM) was 102%, the viability, T/C (second compound 10 µM, first compound 0.1 µM) was 78.2% and the viability, T/C (second compound 10 µM, first compound 0.316 µM) was 80.2%. It also gave a viability, T/C (second compound 10 µM, first compound 1 µM) of 63.5%, a viability, T/C (second compound 10 µM, first compound 3.16 µM) of 49% and a viability, T/C (second compound 10 µM, first compound 10 µM) of 36.6%.
